Measured values as given in ChEMBL document CHEMBL1201862, “PubChem BioAssay data set” (2004).
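Each compound was tested at five concentrations against cells in 96-well plates for 48 hours. Here, GI50 denotes the concentration required for 50% inhibition of growth.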 Activity calls are given as the source filed them. Rule as the data show it: active = GI50 up to about 1.1 µM and inactive = higher.

How the values were obtained:
Experiment in all cases: inhibition of tumour cell growth, NCI panel, 48 h
786-0 = tested on: 786-0
A498 = tested on: A498
A549 = tested on: A549
ACHN = tested on: ACHN
CAKI-1 = tested on: CAKI-1
CCRF-CEM = tested on: CCRF-CEM
COLO 205 = tested on: COLO 205
DLD-1 = tested on: DLD-1
DMS-114 = tested on: DMS-114
DMS-273 = tested on: DMS-273
EKVX = tested on: EKVX
HCC 2998 = tested on: HCC 2998
HCT-116 = tested on: HCT-116
HCT-15 = tested on: HCT-15
HL-60 = tested on: HL-60
HOP-18 = tested on: HOP-18
HOP-62 = tested on: HOP-62
HOP-92 = tested on: HOP-92
HT-29 = tested on: HT-29
IGROV-1 = tested on: IGROV-1
K562 = tested on: K562
KM-20L2 = tested on: KM-20L2
KM12 = tested on: KM12
LOX IMVI = tested on: LOX IMVI
LXFL 529 = tested on: LXFL 529
M14 = tested on: M14
MOLT-4 = tested on: MOLT-4
Malme-3M = tested on: Malme-3M
NCI-H226 = tested on: NCI-H226
NCI-H23 = tested on: NCI-H23
NCI-H460 = tested on: NCI-H460
OVCAR-3 = tested on: OVCAR-3
OVCAR-4 = tested on: OVCAR-4
OVCAR-5 = tested on: OVCAR-5
OVCAR-8 = tested on: OVCAR-8
RPMI-8226 = tested on: RPMI-8226
RXF 393 = tested on: RXF 393
RXF 631 = tested on: RXF 631
SF-268 = tested on: SF-268
SF-295 = tested on: SF-295
SF-539 = tested on: SF-539
SK-MEL-28 = tested on: SK-MEL-28
SK-MEL-2 = tested on: SK-MEL-2
SK-MEL-5 = tested on: SK-MEL-5
SK-OV-3 = tested on: SK-OV-3
SN12C = tested on: SN12C
SNB-19 = tested on: SNB-19
SNB-75 = tested on: SNB-75
SNB-78 = tested on: SNB-78
SR = tested on: SR
SW-620 = tested on: SW-620
TK-10 = tested on: TK-10
U-251 = tested on: U-251
UACC-257 = tested on: UACC-257
UACC-62 = tested on: UACC-62
UO-31 = tested on: UO-31
XF498 = tested on: XF498
M19-MEL = tested on: M19-MEL
NCI-H522 = tested on: NCI-H522

Cc1cnoc1/N=C1\C=C(Nc2oncc2C)C(=O)c2ccccc21
GI50 (786-0): > 100 µM (inactive)
GI50 (A498): > 100 µM (inactive)
GI50 (A549): > 100 µM (inactive)
GI50 (ACHN): > 100 µM (inactive)
GI50 (CAKI-1): > 100 µM (inactive)
GI50 (CCRF-CEM): > 100 µM (inactive)
GI50 (COLO 205): > 100 µM (inactive)
GI50 (DLD-1): > 100 µM (inactive)
GI50 (DMS-114): 46.8 µM (inactive)
GI50 (DMS-273): > 100 µM (inactive)
GI50 (EKVX): > 100 µM (inactive)
GI50 (HCC 2998): > 100 µM (inactive)
GI50 (HCT-116): > 100 µM (inactive)
GI50 (HCT-15): 73.1 µM
GI50 (HL-60): > 100 µM (inactive)
GI50 (HOP-18): > 100 µM (inactive)
GI50 (HOP-62): > 100 µM (inactive)
GI50 (HOP-92): > 100 µM (inactive)
GI50 (HT-29): > 100 µM (inactive)
GI50 (IGROV-1): > 100 µM (inactive)
GI50 (K562): 25.5 µM (inactive)
GI50 (KM-20L2): > 100 µM (inactive)
GI50 (KM12): > 100 µM (inactive)
GI50 (LOX IMVI): 23.3 µM (inactive)
GI50 (LXFL 529): 79.1 µM (inactive)
GI50 (M14): > 100 µM (inactive)
GI50 (MOLT-4): > 100 µM (inactive)
GI50 (Malme-3M): > 100 µM (inactive)
GI50 (NCI-H226): > 100 µM (inactive)
GI50 (NCI-H23): 60.5 µM (inactive)
GI50 (NCI-H460): > 100 µM (inactive)
GI50 (OVCAR-3): 9.86 µM (inactive)
GI50 (OVCAR-4): > 100 µM (inactive)
GI50 (OVCAR-5): > 100 µM (inactive)
GI50 (OVCAR-8): 30.8 µM (inactive)
GI50 (RPMI-8226): > 100 µM (inactive)
GI50 (RXF 393): > 100 µM (inactive)
GI50 (RXF 631): > 100 µM (inactive)
GI50 (SF-268): > 100 µM (inactive)
GI50 (SF-295): > 100 µM (inactive)
GI50 (SF-539): > 100 µM (inactive)
GI50 (SK-MEL-28): > 100 µM (inactive)
GI50 (SK-MEL-2): > 100 µM (inactive)
GI50 (SK-MEL-5): 33.3 µM (inactive)
GI50 (SK-OV-3): > 100 µM (inactive)
GI50 (SN12C): > 100 µM (inactive)
GI50 (SNB-19): > 100 µM (inactive)
GI50 (SNB-75): > 100 µM (inactive)
GI50 (SNB-78): > 100 µM (inactive)
GI50 (SR): > 100 µM (inactive)
GI50 (SW-620): > 100 µM (inactive)
GI50 (TK-10): > 100 µM (inactive)
GI50 (U-251): > 100 µM (inactive)
GI50 (UACC-257): 65.6 µM (inactive)
GI50 (UACC-62): 48.3 µM (inactive)
GI50 (UO-31): 62.1 µM (inactive)
GI50 (XF498): > 100 µM (inactive)

CC1(C)CC(N(C(=O)/C=C/c2ccc([N+](=O)[O-])o2)C2CCCCC2)CC(C)(C)N1
GI50 (786-0): 6.82 µM (inactive)
GI50 (A498): 16.2 µM (inactive)
GI50 (A549): 15 µM (inactive)
GI50 (ACHN): 12.8 µM (inactive)
GI50 (CAKI-1): 5.52 µM (inactive)
GI50 (CCRF-CEM): 3.25 µM (inactive)
GI50 (DLD-1): 1.73 µM (inactive)
GI50 (DMS-114): 2.55 µM (inactive)
GI50 (DMS-273): 5.52 µM (inactive)
GI50 (EKVX): 13.9 µM (inactive)
GI50 (HCC 2998): 11.3 µM (inactive)
GI50 (HCT-116): 3.18 µM (inactive)
GI50 (HCT-15): 7.45 µM
GI50 (HL-60): 2.21 µM (inactive)
GI50 (HOP-18): 22.8 µM (inactive)
GI50 (HOP-62): 20 µM (inactive)
GI50 (HOP-92): 3.65 µM (inactive)
GI50 (HT-29): 4.49 µM (inactive)
GI50 (IGROV-1): 14.3 µM (inactive)
GI50 (KM-20L2): 5.38 µM (inactive)
GI50 (KM12): 10.3 µM (inactive)
GI50 (LOX IMVI): 12 µM (inactive)
GI50 (LXFL 529): 5.36 µM (inactive)
GI50 (M14): 2.82 µM (inactive)
GI50 (M19-MEL): 5.11 µM (inactive)
GI50 (MOLT-4): 3.96 µM (inactive)
GI50 (NCI-H23): 9.46 µM (inactive)
GI50 (NCI-H460): 3.71 µM (inactive)
GI50 (NCI-H522): 7.91 µM (inactive)
GI50 (OVCAR-3): 12.3 µM (inactive)
GI50 (OVCAR-4): 10.4 µM (inactive)
GI50 (OVCAR-5): 23.6 µM (inactive)
GI50 (OVCAR-8): 5.2 µM (inactive)
GI50 (RPMI-8226): 3.29 µM (inactive)
GI50 (RXF 631): 10.6 µM (inactive)
GI50 (SF-268): 7.62 µM (inactive)
GI50 (SF-295): 13.5 µM (inactive)
GI50 (SF-539): 9.86 µM (inactive)
GI50 (SK-MEL-28): 12.5 µM (inactive)
GI50 (SK-MEL-5): 10.2 µM (inactive)
GI50 (SK-OV-3): 28.6 µM (inactive)
GI50 (SN12C): 6.22 µM (inactive)
GI50 (SNB-19): 13.1 µM (inactive)
GI50 (SNB-75): 10.5 µM (inactive)
GI50 (SNB-78): 10.5 µM (inactive)
GI50 (SR): 5.89 µM (inactive)
GI50 (SW-620): 2.55 µM (inactive)
GI50 (TK-10): 21.3 µM (inactive)
GI50 (U-251): 5.35 µM (inactive)
GI50 (UACC-257): 11.1 µM (inactive)
GI50 (UACC-62): 10 µM (inactive)
GI50 (UO-31): 12.2 µM (inactive)
GI50 (XF498): 11.4 µM (inactive)

Cc1ccc(SCC(=O)C2=C(O)CCCC2=O)cc1
GI50 (786-0): > 100 µM (inactive)
GI50 (A549): > 100 µM (inactive)
GI50 (ACHN): > 100 µM (inactive)
GI50 (CAKI-1): > 100 µM (inactive)
GI50 (CCRF-CEM): 40.6 µM (inactive)
GI50 (COLO 205): > 100 µM (inactive)
GI50 (DLD-1): > 100 µM (inactive)
GI50 (DMS-114): > 100 µM (inactive)
GI50 (DMS-273): > 100 µM (inactive)
GI50 (EKVX): > 100 µM (inactive)
GI50 (HCT-116): > 100 µM (inactive)
GI50 (HCT-15): > 100 µM
GI50 (HL-60): > 100 µM (inactive)
GI50 (HOP-18): > 100 µM (inactive)
GI50 (HOP-62): > 100 µM (inactive)
GI50 (HOP-92): > 100 µM (inactive)
GI50 (HT-29): > 100 µM (inactive)
GI50 (IGROV-1): > 100 µM (inactive)
GI50 (K562): > 100 µM (inactive)
GI50 (KM-20L2): > 100 µM (inactive)
GI50 (KM12): > 100 µM (inactive)
GI50 (LOX IMVI): > 100 µM (inactive)
GI50 (LXFL 529): > 100 µM (inactive)
GI50 (M14): > 100 µM (inactive)
GI50 (M19-MEL): > 100 µM (inactive)
GI50 (MOLT-4): > 100 µM (inactive)
GI50 (Malme-3M): > 100 µM (inactive)
GI50 (NCI-H226): > 100 µM (inactive)
GI50 (NCI-H23): > 100 µM (inactive)
GI50 (NCI-H460): > 100 µM (inactive)
GI50 (NCI-H522): > 100 µM (inactive)
GI50 (OVCAR-3): > 100 µM (inactive)
GI50 (OVCAR-4): > 100 µM (inactive)
GI50 (OVCAR-5): > 100 µM (inactive)
GI50 (OVCAR-8): > 100 µM (inactive)
GI50 (RPMI-8226): > 100 µM (inactive)
GI50 (RXF 393): > 100 µM (inactive)
GI50 (RXF 631): > 100 µM (inactive)
GI50 (SF-268): > 100 µM (inactive)
GI50 (SF-295): > 100 µM (inactive)
GI50 (SF-539): > 100 µM (inactive)
GI50 (SK-MEL-28): > 100 µM (inactive)
GI50 (SK-MEL-2): > 100 µM (inactive)
GI50 (SK-MEL-5): > 100 µM (inactive)
GI50 (SK-OV-3): > 100 µM (inactive)
GI50 (SN12C): > 100 µM (inactive)
GI50 (SNB-19): > 100 µM (inactive)
GI50 (SNB-75): > 100 µM (inactive)
GI50 (SNB-78): > 100 µM (inactive)
GI50 (SR): > 100 µM (inactive)
GI50 (SW-620): > 100 µM (inactive)
GI50 (TK-10): > 100 µM (inactive)
GI50 (U-251): > 100 µM (inactive)
GI50 (UACC-257): > 100 µM (inactive)
GI50 (UACC-62): > 100 µM (inactive)
GI50 (UO-31): > 100 µM (inactive)
GI50 (XF498): > 100 µM (inactive)
